The record followed here is paper PMC6143625, “A high throughput screen for next-generation leads targeting malaria parasite transmission” (Nature Communications, 2018).

Each structure is given as a SMILES string. Like-named read-outs stand apart in the source and are kept apart here.

Assay [1] concerns P. falciparum stage V female gametocytes (female gamete formation). Put plainly: P. falciparum dual gamete formation assay (Pf DGFA), female readout (Pfs25 expression), 48 h carry-over format. Particulars: Plasmodium falciparum; for inhibition at 2 µM: primary screen, single replicate. Format: cell-based, Plasmodium falciparum NF54.
For assay [2], the system named is P. falciparum stage V male gametocytes (male gamete formation). Put plainly: P. falciparum dual gamete formation assay (Pf DGFA), male readout (exflagellation), 48 h carry-over format. It counts as cell-based, Plasmodium falciparum NF54. Particulars: for IC50 / inhibition at 2 µM: Plasmodium falciparum; for inhibition at 2 µM: primary screen, single replicate; for activity in the Pf DGFA: freshly resynthesized compound.

The subject of assay [3] is P. falciparum 3D7 asexual blood stages. Put plainly: Whole-cell time extended asexual growth assay (pLDH). The conditions noted are these: Plasmodium falciparum; for inhibition at 2 µM: primary screen, read-out: %Inh Asex stages @2uM. It counts as cell-based. Here is the method:
Asexual activity was assayed via Plasmodium lactate dehydrogenase activity (pLDH), a surrogate of asexual parasite growth. […] 2 µM artesunate and DMSO were used as the positive and negative controls, respectively. […] After plate mixing, NBT reduction was measured by absorbance at 650 nm using Envision (Perkin Elmer).

In assay [4] the test system is P. falciparum male gamete formation. The assay can be described thus: Pf DGFA add-in format, male readout. Particulars: for IC50: Plasmodium falciparum, 0h preincubation/add-in. It counts as cell-based, Plasmodium falciparum. Here is the method: In profiling mode, the Pf DGFA was performed in 96-well plates[23] in wash-out and add-in formats to aid manual manipulation steps. In the wash-out format, gametocytes were incubated for 24 h with test compounds in round-bottomed 96 well plates and then culture medium replaced three times over 6 h, to remove as much of the compound as possible from the well. […] In add-in format, gametocytes were added directly to flat-bottomed 96-well plates containing test compounds, ookinete medium and anti-Pfs25.

The mark [5] stands for this setting: 24h preincubation/carry-over, read-out: Pf DGFA Female IC50.
The mark [6] stands for this setting: 48 h, dose response retest of primary hits, 48 h incubation, read-out: Female IC50.
Where [7] appears, read: 48h preincubation/carry-over, read-out: Pf DGFA Female IC50.
[8] abbreviates: 48 h, dose response retest of primary hits, 48 h incubation, read-out: Male IC50.
Where [9] appears, read: 48h preincubation/carry-over, read-out: Pf DGFA Male IC50.
[10] abbreviates: 72h incubation, read-out: Pf Asexual IC50.
[11] abbreviates: dose response retest, 72 h, read-out: IC50 (µM) Asex stages.

What is called IC50 is the concentration that gives 50% inhibition. Regarding `CC(C)CN1CCn2nc(CNc3ncnc4[nH]ccc34)cc2C1` [DDD01249504], the IC50 in assay [1] (setting [5]) was more than 25 µM; in assay [1] (setting [6]) it was more than 10 µM; in assay [1] (setting [7]), more than 25 µM; in assay [2] (setting [8]), 2.27 µM; in assay [2] (setting [9]), 1.66 µM; in assay [2] (240 h, resynthesized, aged 10 days at room temperature in the light, read-out: IC50 in Pf DGFA after aging), 0.381 µM. Moreover, the IC50 in assay [3] (setting [10]) is more than 20 µM; in assay [4] it was more than 10 µM. For the same compound, the inhibition at 2 µM in assay [1] (48 h incubation) is less than 30%; in assay [2] (48 h incubation) it was 52.1%. The “activity in the Pf DGFA” value in assay [2] is “inactive”. Further, the “activity in Pf DGFA after aging” value in assay [2] (resynthesized, incubated in the dark at 37 °C) was “inactive”. Also, the “activity in Pf DGFA” value in assay [2] (resynthesized, untreated compound) is “inactive”.
Take `CCCn1nccc1C(=O)N1CCN(C2CCc3ccccc3C2)CC1` (centres unmarked) [DDD01251134]: the IC50 is more than 12.5 µM in assay [1] (setting [5]); more than 12.5 µM in assay [1] (setting [7]); more than 12.5 µM in assay [2] (setting [9]); 1.01 µM in assay [3] (setting [10]); 0.969 µM in assay [3] (setting [11]); more than 10 µM in assay [4]. Also, the inhibition at 2 µM in assay [3] (72 h) came to 58.4%.
With `Cc1nn(C)c(Oc2ccc(Cl)cc2)c1CN1CCC(CN)C1` (centres unmarked) [DDD01254274], the IC50 in assay [1] (setting [5]) is more than 25 µM; in assay [1] (setting [6]), more than 10 µM; in assay [1] (setting [7]) it was more than 25 µM; in assay [2] (setting [8]), 4.08 µM; in assay [2] (setting [9]), 2.25 µM; in assay [3] (setting [10]), more than 20 µM. The IC50 in assay [4] was more than 10 µM. Also, the inhibition at 2 µM in assay [1] (48 h incubation) was less than 30%; in assay [2] (48 h incubation), 53.1%.
`CCc1ccc(C2c3nc[nH]c3CCN2Cc2nccn2CC)nc1` (centres unmarked) [DDD01254473]: the IC50 is more than 25 µM in assay [1] (setting [5]); 2.79 µM in assay [1] (setting [6]); 0.167 µM in assay [1] (setting [7]); more than 10 µM in assay [2] (setting [8]); 3.96 µM in assay [2] (setting [9]); more than 20 µM in assay [3] (setting [10]). This compound gave a 50% inhibitory concentration (IC50) in assay [4] of more than 10 µM. Also, the results for the inhibition at 2 µM in assay [1] (48 h incubation) and in assay [2] (48 h incubation) were 30.5% and less than 30%, respectively.
`CCOc1ccc2ccccc2c1CNCC1CCNCC1.Cl.Cl` [DDD01255740]: the IC50 was more than 25 µM in assay [1] (setting [5]); more than 10 µM in assay [1] (setting [6]); 1.88 µM in assay [1] (setting [7]); 4.4 µM in assay [2] (setting [8]); 0.41 µM in assay [2] (setting [9]); 3.56 µM in assay [3] (setting [10]). The same compound showed an IC50 in assay [4] of more than 10 µM. In addition, the inhibition at 2 µM in assay [1] (48 h incubation) is less than 30%; in assay [2] (48 h incubation), 35.6%.
Turning to `Cc1ccc(-c2cc(C(=O)NCCC3=CCCCC3)[nH]n2)o1` [DDD01255968], the IC50 was more than 12.5 µM in assay [1] (setting [5]); more than 10 µM in assay [1] (setting [6]); more than 12.5 µM in assay [1] (setting [7]); 1.55 µM in assay [2] (setting [8]); 1.82 µM in assay [2] (setting [9]); 15.9 µM in assay [2] (resynthesized, incubated at room temperature, read-out: IC50 in Pf DGFA after aging). Also, the IC50 was 5.85 µM in assay [2] (resynthesized, prolonged incubation at 37 °C, read-out: IC50 in Pf DGFA after aging); more than 20 µM in assay [3] (setting [10]); 0.32 µM in assay [4]. Also, the values for the inhibition at 2 µM in assay [1] (48 h incubation) and in assay [2] (48 h incubation) were less than 30% and 37.5%, respectively. Moreover, the “activity in the Pf DGFA” value in assay [2] is “inactive”. Also, in assay [4] (profiling), the “activity in the add-in format” value is “active”.
As for `CCn1ncc(Br)c1CN(C)S(=O)(=O)c1ccc(C)cc1` [DDD01259521], the IC50 in assay [1] (setting [5]) was more than 12.5 µM; in assay [1] (setting [7]), more than 12.5 µM; in assay [2] (setting [9]) it was more than 12.5 µM; in assay [3] (setting [10]), 1.06 µM; in assay [3] (setting [11]), 1.02 µM; in assay [4], more than 10 µM. The inhibition at 2 µM in assay [3] (72 h) is 56.1%.
Take `c1cnnc(N2CCCC2CNc2ncnc3sccc23)c1` (centres unmarked) [DDD01299704]: the IC50 in assay [1] (setting [5]) is more than 12.5 µM; in assay [1] (setting [7]), more than 12.5 µM; in assay [2] (setting [9]), more than 12.5 µM; in assay [3] (setting [10]) it was 0.44 µM; in assay [3] (setting [11]) it was 0.532 µM; in assay [4], more than 10 µM. Further, in assay [3] (72 h), the inhibition at 2 µM was 66.7%.
